# Measured values reported in US20110301102A1, “COMPOSITIONS AND METHODS FOR TREATING MYELODYSPLASTIC SYNDROME” (Telik, Inc., priority 2010, published 2011).
# Legend:
# [1] = system: patients with MDS (IPSS low and intermediate-1 risk); conditions: one patient (Quddus et al.); cited from earlier work
# [2] = system: patients with MDS (IPSS low and intermediate-1 risk); assay: Clinical study of Telintra (ezatiostat hydrochloride) in patients with MDS, two dosing schedules; conditions: for patients with significant RBC transfusion reduction: 5 of 11 patients
# Method: Eighty-seven patients were randomized and treated at 23 investigational sites. After initial dose ranging in 14 patients, two dose levels were selected for further study. Subsequently, 37 patients were treated at 3 grams daily for two weeks followed by a one week rest period, and 36 patients were treated at 2 grams daily for three weeks followed by a one week rest period. The data on these 73 patients was pooled for this preliminary analysis.
# The median age was 72 years, with a patient population distribution of International Prognostic Scoring System (IPSS) low risk (23 patients, 32%) and intermediate-1 risk (50 patients, 68%).
smiles,measurement,setting,value
"CCOC(=O)[C@@H](N)CCC(=O)N[C@@H](CSCc1ccccc1)C(=O)N[C@@H](C(=O)OCC)c1ccccc1 [Telintra®, ethyl (2S)-2-amino-5-[[(2R)-3-benzylsulfanyl-1-[[(1R)-2-ethoxy-2-oxo-1-phenylethyl]amino]-1-oxopropan-2-yl]amino]-5-oxopentanoate]",duration of complete remission following discontinuation of therapy,[1],more than 12 months
same,"Duration of HI-E Response, Median (95% CI)",[2]; 1 g b.i.d. (2 grams per day) 3 weeks on & 1 week off,46.1 (10.0-46.1) Weeks
same,"Duration of HI-E Response, Median (95% CI)",[2]; 1.5 g b.i.d. (3 grams per day) 2 weeks on & 1 week off,18.4 (3.1-51.0) Weeks
same,patients achieving RBC transfusion independence,"[2]; 4 of 38 RBC transfusion-dependent patients, pooled",11%
same,"patients with clinically significant RBC transfusion reductions (reduction of 4 U/8 weeks, IWG 2006)","[2]; 11 of 38 RBC transfusion-dependent patients, pooled",29%
same,effect of prior DMTI treatment on GI adverse events,[2]; all patients treated,increased incidence of GI AEs
same,"incidence of diarrhea, Grade 1",[2]; all patients treated,25%
same,"incidence of diarrhea, Grade 2",[2]; all patients treated,7%
same,"incidence of diarrhea, Grade 3",[2]; all patients treated,3%
same,"incidence of nausea, Grade 1",[2]; all patients treated,45%
same,"incidence of nausea, Grade 2",[2]; all patients treated,16%
same,"incidence of nausea, Grade 3",[2]; all patients treated,1%
same,"incidence of vomiting, Grade 1",[2]; all patients treated,30%
same,"incidence of vomiting, Grade 2",[2]; all patients treated,12%
same,"incidence of vomiting, Grade 3",[2]; all patients treated,2%
same,number of cytogenetic complete responses,"[2]; all patients, pooled",three
same,effect of prior Revlimid treatment on HI-E response,[2]; logistic regression analysis,enhance HI-E response
same,change in the odds for a HI-E response with prior DMTI treatment,"[2]; logistic regression analysis, p=0.023",five-fold decrease
same,patients with significant RBC transfusion reduction,"[2]; no prior Revlimid, no prior DMTI",45%
same,number of patients with complete cytogenetic response,[2]; of the four patients with del 5q minus,two
same,patients achieving transfusion independence,"[2]; prior Revlimid, no prior DMTI, 3 of 11 patients",27%
same,patients with significant RBC transfusion reduction,"[2]; prior Revlimid, no prior DMTI",45%
